What was measured:
SUDHL-2 = experiment: Pre-treatment model combination study (4 days pre-treatment, 3 days co-treatment), CellTiter-Glo, Loewe Volume; type: cell-based; conditions: SUDHL-2 diffuse large B-cell lymphoma cells, 4 days Cpd. No. 15 pre-treatment then 3 days co-treatment
Experimental: (§1) Diffuse large B-cell lymphoma cells were seeded into flasks and pre-treated with several concentrations of Cpd. No. 15 or DMSO. Cells were then split adjusted to initial density, replated and co-treated Cpd. No. 15 and a second agent of interest using the HP D300 digital dispenser (Tecan Group, Mannedorf, Switzerland) in tissue culture treated solid white 384-well plates for additional 3 days. […] After 3 days cotreatment, cell viability was measured via ATP content using CellTiter-Glo® (Promega, Madison, WI) and luminescence was detected using a SpectraMax M5 microplate reader (Molecular Devices, Sunnyvale, CA).
(§2) Diffuse large B-cell lymphoma (DLBCL) cell line cultures in log-linear growth rate were treated with combinations of Cpd. No. 15 and combination partners according to a pre-treatment model. Cells were seeded first into 8 flasks and pre-treated with 7 different concentrations of Cpd. […] Cells were harvested from each flask and re-seeded onto the corresponding 384-well plate with the same concentration of Cpd. No. 15. and 9 concentrations of its combination partner in triplicate wells. The final concentration of DMSO (vehicle) in the assay was 0.1% v/v. Fifty microliters of cell line(s) suspension were directly dispensed to the assay-ready plates with an automated multichannel dispenser on to 384-well assay-ready plates. Assay plates were incubated for three days in a humidified atmosphere of 5% CO2 at 37° C. Quantification of the effect of single agents or combinations on cell viability was performed through measurement of cellular adenosine triphosphate (ATP) using CellTiter-Glo® (Promega, Madison, WI). Luminescence was detected using a SpectraMax M5 microplate reader (Molecular Devices, Sunnyvale, CA). Concentration response plots were generated in GraphPad Prism version 8.0 for Windows, GraphPad Software, (La Jolla, CA) and curves fitted to a four-parameter logistic model with variable slope. Percent of inhibition was calculated at each treatment concentration.

WSUDLCL2 = experiment: as above; type: cell-based; conditions: WSUDLCL2 diffuse large B-cell lymphoma cells, 4 days Cpd. No. 15 pre-treatment then 3 days co-treatment
Experimental: as §1, §2

KARPAS422 = experiment: as above; type: cell-based; conditions: KARPAS422 diffuse large B-cell lymphoma cells, 4 days Cpd. No. 15 pre-treatment then 3 days co-treatment
Experimental: as §1, §2

SUDHL-6 = experiment: as above; type: cell-based; conditions: SUDHL-6 diffuse large B-cell lymphoma cells, 4 days Cpd. No. 15 pre-treatment then 3 days co-treatment
Experimental: as §1, §2

RPMI-8226 = experiment: 7-day co-treatment combination study, CellTiter-Glo, Loewe Volume; type: cell-based; conditions: RPMI-8226 multiple myeloma cells, 7-day co-treatment with Cpd. No. 15
Experimental: (§3) Multiple myeloma (MM) and mantle cell lymphoma (MCL) Cell line cultures in log-linear growth rate were treated with combinations of Cpd. No. 15 and combination partners according to a co-treatment model. […] No. 15 and the combination partner. […] Each combination was tested in quadruplicate wells. The final concentration of DMSO (vehicle) in the assay was 0.1% v/v. Fifty microliters of cell line suspension were directly dispensed to the assay-ready plates with an automated multichannel dispenser on to 384-well assay-ready plates. Assay plates were incubated for seven days in a humidified atmosphere of 5% CO2 at 37° C. Quantification of the effect of single agents or combinations on cell viability was performed through measurement of cellular adenosine triphosphate (ATP) using a CellTiter-Glo® (Promega, MadisonWIs.) Luminescent Cell Viability Assay. Luminescence was detected using a SpectraMax M5 microplate reader (Molecular Devices, Sunnyvale, CA). Concentration response plots were generated in GraphPad Prism version 7.0 for Windows, GraphPad Software, (La Jolla, CA) and curves fitted to a four-parameter logistic model with variable slope. Percent of inhibition was calculated at each treatment concentration.
(§4) The results of these combinations are summarized in Tables A and B (multiple myeloma cell lines), and Tables C and D (mantle cell lymphoma cell lines).

JEKO1 = experiment: as above; type: cell-based; conditions: JEKO1 mantle cell lymphoma cells, 7-day co-treatment with Cpd. No. 15
Experimental: as §3, §4

MM1.S = experiment: as above; type: cell-based; conditions: MM1.S multiple myeloma cells, 7-day co-treatment with Cpd. No. 15
Experimental: as §3, §4

L363 = experiment: as above; type: cell-based; conditions: L363 multiple myeloma cells, 7-day co-treatment with Cpd. No. 15
Experimental: as §3, §4

Z138 = experiment: as above; type: cell-based; conditions: Z138 mantle cell lymphoma cells, 7-day co-treatment with Cpd. No. 15
Experimental: as §3, §4

MINO = experiment: as above; type: cell-based; conditions: MINO mantle cell lymphoma cells, 7-day co-treatment with Cpd. No. 15
Experimental: as §3, §4

GRANTA519 = experiment: as above; type: cell-based; conditions: GRANTA519 mantle cell lymphoma cells, 7-day co-treatment with Cpd. No. 15
Experimental: as §3, §4

KMS34 = experiment: as above; type: cell-based; conditions: KMS34 multiple myeloma cells, 7-day co-treatment with Cpd. No. 15
Experimental: as §3, §4

REC1 = experiment: as above; type: cell-based; conditions: REC1 mantle cell lymphoma cells, 7-day co-treatment with Cpd. No. 15
Experimental: as §3, §4

KMS-28-BM = experiment: as above; type: cell-based; conditions: KMS-28-BM multiple myeloma cells, 7-day co-treatment with Cpd. No. 15
Experimental: as §3, §4

MAVER1 = experiment: as above; type: cell-based; conditions: MAVER1 mantle cell lymphoma cells, 7-day co-treatment with Cpd. No. 15
Experimental: as §3, §4

JVM2 = experiment: as above; type: cell-based; conditions: JVM2 mantle cell lymphoma cells, 7-day co-treatment with Cpd. No. 15
Experimental: as §3, §4

KMS-11 = experiment: as above; conditions: KMS-11 multiple myeloma cells, 7-day co-treatment with Cpd. No. 15
NCI-H929 = experiment: as above; type: cell-based; conditions: NCI-H929 multiple myeloma cells, 7-day co-treatment with Cpd. No. 15
Experimental: as §3, §4

Row | SMILES | Combination effect (Loewe Volume class) of Cpd. No. 15 with combination partner (SUDHL-2) | Combination effect (Loewe Volume class) of Cpd. No. 15 with combination partner (WSUDLCL2) | Combination effect (Loewe Volume class) of Cpd. No. 15 with combination partner (KARPAS422) | Combination effect (Loewe Volume class) of Cpd. No. 15 with combination partner (SUDHL-6) | Combination effect (Loewe Volume class) of Cpd. No. 15 with combination partner (RPMI-8226) | Combination effect (Loewe Volume class) of Cpd. No. 15 with combination partner (JEKO1) | Combination effect (Loewe Volume class) of Cpd. No. 15 with combination partner (MM1.S) | Combination effect (Loewe Volume class) of Cpd. No. 15 with combination partner (L363) | Combination effect (Loewe Volume class) of Cpd. No. 15 with combination partner (Z138) | Combination effect (Loewe Volume class) of Cpd. No. 15 with combination partner (MINO) | Combination effect (Loewe Volume class) of Cpd. No. 15 with combination partner (GRANTA519) | Combination effect (Loewe Volume class) of Cpd. No. 15 with combination partner (KMS34) | Combination effect (Loewe Volume class) of Cpd. No. 15 with combination partner (REC1) | Combination effect (Loewe Volume class) of Cpd. No. 15 with combination partner (KMS-28-BM) | Combination effect (Loewe Volume class) of Cpd. No. 15 with combination partner (MAVER1) | Combination effect (Loewe Volume class) of Cpd. No. 15 with combination partner (JVM2) | Combination effect (Loewe Volume class) of Cpd. No. 15 with combination partner (KMS-11) | Combination effect (Loewe Volume class) of Cpd. No. 15 with combination partner (NCI-H929)
1 | Nc1cccc2c1CN(C1CCC(=O)NC1=O)C2=O (centres unmarked) [Lenalidomide, lenalidomide] | Additivity (between 1 and −1: additivity) | Additivity (between 1 and −1: additivity) | No effect | No effect | Synergy (VLoewe>1: synergy) | Synergy (VLoewe>1: synergy) | Additivity (between 1 and −1: additivity) | Additivity (between 1 and −1: additivity) | Synergy (VLoewe>1: synergy) | Additivity (between 1 and −1: additivity) | Additivity (between 1 and −1: additivity) | Synergy (VLoewe>1: synergy) | Additivity (between 1 and −1: additivity) | No Effect | Synergy (VLoewe>1: synergy) | Additivity (between 1 and −1: additivity) | Synergy (VLoewe>1: synergy) | 
2 | CCN(c1cc(-c2ccc(CN3CCOCC3)cc2)cc(C(=O)NCc2c(C)cc(C)[nH]c2=O)c1C)C1CCOCC1 [Tazemetostat, tazemetostat] | Additivity (between 1 and −1: additivity) | Additivity (between 1 and −1: additivity) | No effect | No effect | Additivity (between 1 and −1: additivity) | No Effect | Synergy (VLoewe>1: synergy) | Synergy (VLoewe>1: synergy) | No Effect | No Effect | No Effect | Synergy (VLoewe>1: synergy) | Additivity (between 1 and −1: additivity) |  | Additivity (between 1 and −1: additivity) | Additivity (between 1 and −1: additivity) |  | 
3 | CC1(C)CCC(CN2CCN(c3ccc(C(=O)NS(=O)(=O)c4ccc(NCC5CCOCC5)c([N+](=O)[O-])c4)c(Oc4cnc5[nH]ccc5c4)c3)CC2)=C(c2ccc(Cl)cc2)C1 [Venetoclax, venetoclax] | Synergy (VLoewe>1: synergy) | Synergy (VLoewe>1: synergy) | No effect | Synergy (VLoewe>1: synergy) | Additivity (between 1 and −1: additivity) | Additivity (between 1 and −1: additivity) | Additivity (between 1 and −1: additivity) | Additivity (between 1 and −1: additivity) | Synergy (VLoewe>1: synergy) | Additivity (between 1 and −1: additivity) | Synergy (VLoewe>1: synergy) | Additivity (between 1 and −1: additivity) | Additivity (between 1 and −1: additivity) | Additivity (between 1 and −1: additivity) | Synergy (VLoewe>1: synergy) | Synergy (VLoewe>1: synergy) | Synergy (VLoewe>1: synergy) | Synergy (VLoewe>1: synergy)

Reference: patent publication US12691111B2, “SETD2 inhibitors and related methods and uses, including combination therapies” (EPIZYME, INC., priority 2020, dated 2026)
